We go through three molecules from patent publication US7732447B2, “Fused [d]pyridazin-7-ones” (Cephalon, Inc., priority 2006, dated 2010).

The target of one data set is CDK5/GST-p25 (Homo sapiens, UniProt Q00535). Kind of data set: Cyclin-Dependent Kinase 5 inhibition assay (TRF). Format: biochemical. Conditions: 10 μM ATP; read-out: CDK-5 IC50. On the procedure: Compounds were tested for their ability to inhibit the kinase activity of baculovirus-expressed cyclin-dependent kinase-5 complexed with GST-p25 (CDK5/GST-p25) using a a TRF detection system. Each 96-well Costar high binding plate (Corning Costar #3922, Corning, N.Y.) was coated with 100 μL/well of 50 μg/mL recombinant GST-tagged substrate [GST-retinoblastoma protein (Rb) Lot # 5.1A] in TBS. The CDK5/GST-p25 assay mixture (total volume=100 μL/well) consisting of 20 mM HEPES, pH 7.2, 10 μM ATP, 10 mM MgCl2, 5 mM EGTA, 25 mM β-glycerophosphate, 0.1% BSA, 2.5% DMSO, and various concentrations of test compound were then added to the assay plate. Enzyme (2 ng/mL CDK5/GST-p25 Lot # p25/CD5-3) was added and the reaction was allowed to proceed at 37° C. for 20 minutes. Detection of the phosphorylated product was performed by adding 100 μL/well of phospho-Rb (Ser-780) antibody (Cell Signaling #9307, Beverly, Mass.) diluted 1:10,000 in antibody dilution buffer (0.1% BSA in TBS-T). After 1-hour incubation at room temperature, 100 μL/well of Eu—N1 labelled anti-rabbit antibody diluted 1:50,000 in antibody dilution buffer (PerkinElmer Life Sciences #AD0105, Boston, Mass.) was added. Incubation at room temperature then proceeded for 1 hour, followed by addition of 100 μl enhancement solution (PerkinElmer Life Sciences #1244-105, Boston, Mass.). The plate was gently agitated and after a few minutes, the fluorescence of the resulting solution was measured using the PerkinElmer EnVision 2100 (or 2102) multilabel plate reader.
Chain of CDK5/GST-p25 (Q00535 whole entry, species assumed): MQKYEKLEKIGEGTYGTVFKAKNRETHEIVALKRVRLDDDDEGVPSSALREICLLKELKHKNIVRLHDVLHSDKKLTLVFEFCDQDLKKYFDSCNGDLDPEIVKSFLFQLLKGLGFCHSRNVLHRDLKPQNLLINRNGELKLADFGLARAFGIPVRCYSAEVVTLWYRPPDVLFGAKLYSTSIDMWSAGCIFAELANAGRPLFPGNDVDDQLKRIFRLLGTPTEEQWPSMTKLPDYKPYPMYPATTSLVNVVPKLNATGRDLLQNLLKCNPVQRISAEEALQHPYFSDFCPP
Chain of CDK5/GST-p25 (Q15078 99-307 partner limits assumed, species assumed): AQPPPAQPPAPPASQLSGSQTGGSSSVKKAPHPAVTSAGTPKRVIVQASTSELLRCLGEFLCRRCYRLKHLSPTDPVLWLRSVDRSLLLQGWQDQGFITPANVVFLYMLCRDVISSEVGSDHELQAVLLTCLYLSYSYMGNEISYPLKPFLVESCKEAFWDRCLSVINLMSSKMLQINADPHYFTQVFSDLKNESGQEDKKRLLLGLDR

`COc1ccc2c(c1)[nH]c1c(-c3ccc(OCc4ccccc4)cc3)n[nH]c(=O)c12` [Example 4t, 4-(4-Benzyloxy-phenyl)-7-methoxy-2,5-dihydro-pyridazino[4,5-b]indol-1-one] came in with a melting point of more than 300 °C. Moreover, on CDK5/GST-p25, the IC50 was more than 1000 nM.
Molecule `COc1ccc2c(c1)[nH]c1c(-c3ccc(O)cc3)n[nH]c(=O)c12` [Example 4u, 4-(4-Hydroxy-phenyl)-7-methoxy-2,5-dihydro-pyridazino[4,5-b]indol-1-one] registered a melting point of more than 300 °C. For the same molecule, the IC50 on CDK5/GST-p25 worked out at 756 nM.
For `COc1ccc(-c2n[nH]c(=O)c3c2[nH]c2ccccc23)cc1` [Example 4r, 4-(4-Methoxy-phenyl)-2,5-dihydro-pyridazino[4,5-b]indol-1-one] the same measures were more than 300 °C and more than 1000 nM.
